The test relates to Normal human epidermal melanocytes. The test can be described thus: Damage inhibition experiment using normal human melanocytes (UVB photoaging, real-time PCR gene expression). It is filed as cell-based. Here is the method: Melanocytes isolated from normal human skin (Normal human epidermal melanocytes) were treated with ultraviolet B (312 nm) at 20 mJ each, once a day, for two days, and cultured for one month. Melasolv was dissolved in DMSO at 1000×, irradiated with ultraviolet rays, and then immediately placed in a culture medium at 1 and 5 ppm and treated. The cells were grown in a 37° C., 5% CO2 incubator while changing the culture medium containing the experimental material every two days. After the experiment was completed, the cells were dissolved in TRIzol and collected, and total RNA was isolated. Then, cDNA was synthesized therefrom and real-time PCR was performed to compare the relative expression levels of each gene. The RNA was quantified and the same amount of RNA was added to each experimental group, and the expression of each gene was corrected by the expression of GAPDH, a house-keeping gene, to compare the relative expression levels.
The gene primers used were purchased from APPLIED BIOSYSTEMS as follows: […]
For orientation: In qPCR the cycle at which signal appears reflects the starting amount.

As for `COc1cc(/C=C/C(=O)Oc2cc(C)ccc2C(C)C)cc(OC)c1OC` [Melasolv, (5-methyl-2-propan-2-ylphenyl) (E)-3-(3,4,5-trimethoxyphenyl) prop-2-enoate], for the setting “UVB-photoaged melanocytes, 5 ppm of Melasolv, compared with control group, FIG. 4”, the “expression of the XPA gene” value is given as “increased even higher than that of the control group”. Besides, under “melanocytes irradiated with UVB (312 nm, 20 mJ, once a day for two days), cultured one month, Melasolv at 1 and 5 ppm, real-time PCR corrected by GAPDH, FIGS. 1 and 2”, the “expression of aging genes (p16, p21)” value is reported as “inhibited in a concentration-dependent manner”. The “expression of DNA repair genes (APEX1, XPA, RPA1) that had decreased due to photoaging” value (melanocytes irradiated with UVB (312 nm, 20 mJ, once a day for two days), cultured one month, Melasolv at 1 and 5 ppm, real-time PCR corrected by GAPDH, FIGS. 3 to 5) was “increased”.

For the origin of these results see US20250213448A1, “COMPOSITION FOR PROTECTING SKIN CONTAINING A THYMOL ESTER-BASED COMPOUND” (Amorepacific Corporation, priority 2024, published 2025).
